The source of these data is patent US20250327191A1, “CORROSSION INHIBITOR COMPOSITIONS” (Tata Consultancy Services Limited, priority 2024, published 2025).

A short description of the assay: Corrosion inhibition on steel coupons immersed in 1M HCl for 2 hrs. As for the experimental part: The corrosion inhibitor composition of the example—1 is tested for its corrosion inhibition effect on steel at two temperatures. The steel being the ferrous alloy has the following composition:
The steel coupons are initially abraded with various emery papers of decreasing coarseness i.e. 80, 150, 220, 400 grits to obtain a fine finish surface. The fine finished coupons are cleaned with acetone and then wrapped in paper to avoid any further oxidation and stored in a safe and dry place until further use. The 400 grit finished coupons are immersed in 100 ml 1M HCl solution for 2 hrs at room temperature and at […], to find out the corrosion rate. Similarly, the fine finished coupons are also immersed in 100 ml 1M HCl along with the composition of the example—1 with an effective concentration of inhibitor 200, 500 and 1000 ppm for 2 hrs at room temperatures. […] As, it is also essential for the corrosion inhibitors to perform well in case of higher temperatures. Further, the composition of example—1 is tested at higher temperatures. The below Table-2 provides the information on test results. It is evident from the Table-2 that the inhibition efficiencies at 60° C. is relatively higher than that of room temperature. The average corrosion rates (CR) at room temperature and 60° C. in 1 M HCl without inhibitor for 2 hrs immersion are 1.1081 cm/y and 16.42325 cm/y respectively. The inhibition efficiency (IE) is calculated using the formula: […]

Take `Cc1ccc(C=O)s1` [5-Methyl-2-thiophenecarboxaldehyde, 5-methyl-2-thiophenecarboxaldehyde]: the “IE (%)” value by setting is: (200 ppm, no KI intensifier, 27 °C) 54.03%; (500 ppm, no KI intensifier, 27 °C) 63.58%; (1000 ppm, 0.1 wt % KI, 27 °C) 84.07%; (1000 ppm, 0.25 wt % KI, 27 °C) 90.43%; (1000 ppm, 0.5 wt % KI, 27 °C) 92.36%; (1000 ppm, 0.5 wt % KI, 60 °C) 95.06%. Moreover, the “IE (%)” value (1000 ppm, no KI intensifier, 27 °C) was 72.65%.
